Source: patent publication US12435061B2 (priority 2020, dated 2025)
Counter-ions that a name gives are not always drawn. Like-named read-outs stand apart in the source and are kept apart here.

Target: hTRPV3 (Homo sapiens (Human), UniProt Q8NET8)
Assay: Whole-cell patch clamp, hTRPV3 Phase 1 / Phase 2 currents
Assay type: cell-based
Excerpt: Whole-cell patch clamp experiments permit the detection of currents through the TRPV3 channel in the cell line described above. A glass electrode is brought into contact with a single cell and the membrane is then ruptured, permitting control of the voltage of the cell membrane and measurement of currents flowing across the membrane using the amplifier attached to the electrode. A perfusion system permits control of the extracellular solution, including the addition of blockers and activators of the current. The current can be activated by heating this solution to 28° C. or warmer or by addition of 20 μM 2-APB to the solution.
TRPV3 cells were induced 20-48 hours, removed from growth plates, and replated at low density (to attain good single-cell physical separation) on glass coverslips for measurement. In some cases, cells were grown in low density overnight on glass coverslips. Patch clamp recordings were made in the whole-cell mode with a holding potential of −40 mV. Every 5 seconds, a voltage ramp was applied from −120 to +100 mV, 400 ms in duration. Currents elicited were quantified at −80 mV and +80 mV. […] External solution was Ringer's solution described above.
P1 refers to the Phase 1 current for human (h) TRPV3, and P2 refers to the Phase 2 current for human (h) TRPV3.
In Tables 3 and 4, Phase 1 refers to Phase 1 current for human (h) TRPV3 or rat (r) TRPV3, and Phase 2 refers to Phase 2 current for human (h) TRPV3 or rat (r) TRPV3. The hTRPV3 and rTRPV3 assays were performed as described herein. hERG refers to the inhibition the human ERG (hERG) channel. NaV1.5, refers to the pore forming aL-subunit of the voltage-dependent cardiac Na(+) channel and is an integral membrane protein involved in the initiation and conduction of action potentials. hTRPV3 HAMA IC50 refers to the IC50 of TRPV3 cells stably expressed in TRex-293 cells. Solubility Ringer refers to the compounds' solubility in Ringer's solution. LM T1/2 refers to liver microsome half-lives in either rat or human liver microsomes. FLIPR IC50 refers to the IC50 of the test compounds against recombinant hTRPV3 cells.

[1] = Phase 1 current, inward, whole-cell patch clamp, read-out: hTRPV3 Patch P1 Inwd
[2] = Phase 1 current, read-out: hTRPV3 (nM) (Phase 1)
[3] = Phase 1 current, human TRPV3, read-out: hTRPV3 (nM) Phase 1
[4] = Phase 2 current, inward, whole-cell patch clamp, read-out: hTRPV3 Patch P2 Inwd
[5] = Phase 2 current, read-out: hTRPV3 (nM) (Phase 2)

Chain of hTRPV3 (Q8NET8 whole entry): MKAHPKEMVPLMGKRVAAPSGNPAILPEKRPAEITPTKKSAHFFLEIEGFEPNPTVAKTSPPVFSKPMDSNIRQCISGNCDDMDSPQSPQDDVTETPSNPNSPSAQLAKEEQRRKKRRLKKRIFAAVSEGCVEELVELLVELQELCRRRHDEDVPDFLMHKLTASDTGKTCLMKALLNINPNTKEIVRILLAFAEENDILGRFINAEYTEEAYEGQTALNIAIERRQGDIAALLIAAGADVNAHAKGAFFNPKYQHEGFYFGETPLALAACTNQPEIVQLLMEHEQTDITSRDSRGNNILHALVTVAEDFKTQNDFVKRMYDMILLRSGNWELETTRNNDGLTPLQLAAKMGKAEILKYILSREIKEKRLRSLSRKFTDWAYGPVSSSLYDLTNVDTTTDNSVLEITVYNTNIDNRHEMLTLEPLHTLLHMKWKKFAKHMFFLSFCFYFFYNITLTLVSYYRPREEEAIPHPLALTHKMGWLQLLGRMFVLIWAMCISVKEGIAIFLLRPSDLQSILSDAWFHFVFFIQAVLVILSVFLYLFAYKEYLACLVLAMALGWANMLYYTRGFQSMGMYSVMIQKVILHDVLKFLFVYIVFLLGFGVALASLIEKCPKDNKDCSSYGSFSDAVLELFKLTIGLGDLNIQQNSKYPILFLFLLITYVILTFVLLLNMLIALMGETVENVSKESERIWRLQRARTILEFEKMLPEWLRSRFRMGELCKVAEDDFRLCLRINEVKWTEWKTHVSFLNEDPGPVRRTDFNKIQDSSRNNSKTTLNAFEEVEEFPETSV

Row | Compound | IC50 [1] [nM] | IC50 [2] [nM] | also measured
1 | CC(C)(C)OC(=O)N1CC=C(c2ccc(N3CC[C@H](Oc4ccc(C(F)(F)F)cn4)C3)c(CCO)c2)CC1 [Compound 1-299, (S)-tert-butyl 4-(3-(2-hydroxyethyl)-4-(3-(5-(trifluoromethyl)pyridin-2-yloxy)pyrrolidin-1-yl)phenyl)-5,6-dihydropyridine-1 (2H)-carboxylate] | > 1000 | > 3200 | 
2 | CCc1nccnc1-c1ccc(C2CCN(C(=O)c3ccc(F)cn3)C2)c(CO)c1 (centres unmarked) [Compound 2-68, (3-(4-(3-ethylpyrazin-2-yl)-2-(hydroxymethyl)phenyl)pyrrolidin-1-yl)(5-fluoropyridin-2-yl)methanone] | > 1000 |  | IC50 [3]: > 3200 nM
3 | CCc1ccccc1Oc1ccc(C2CCN(C(=O)c3ccccn3)C2)c(C(N)=O)c1 (centres unmarked) [Compound 2-38, 5-(2-ethylphenoxy)-2-(1-picolinoylpyrrolidin-3-yl)benzamide] | > 1000 |  | IC50 [3]: 2820 nM
4 | O=C(c1ccc(N2CC[C@H](Oc3ncccc3F)C2)c(CO)c1)c1ccccc1Cl [Compound 1-265, (S)-(2-chlorophenyl)(4-(3-(3-fluoropyridin-2-yloxy)pyrrolidin-1-yl)-3-(hydroxymethyl)phenyl)methanone] | > 1000 | 1780 | 
5 | 5-(2-isopropylphenoxy)-2-(1-(pyrazine-2-carbonyl)pyrrolidin-3-yl)benzamide [Compound 2-103] | > 1000 |  | IC50 [3]: ~5250 nM
6 | O=C1C(Oc2ccc3ccccc3n2)CCN1c1ccc(-c2ccccc2)cc1 (centres unmarked) [Compound 1-95, 1-(biphenyl-4-yl)-3-(quinolin-2-yloxy)pyrrolidin-2-one] | > 1000 | > 3200 | 
7 | COCc1ccccc1-c1ccc(C2CCN(C(=O)c3ccc(F)cn3)C2)c(CO)c1 (centres unmarked) [Compound 2-61, (5-fluoropyridin-2-yl)(3-(3-(hydroxymethyl)-2′-(methoxymethyl)biphenyl-4-yl)pyrrolidin-1-yl)methanone] | 100 to 1000 |  | IC50 [3]: 153 nM
8 | OCCc1cc(C(O)c2cccc(Cl)c2)ccc1N1CC[C@H](Nc2ccc(F)cn2)C1 (stereo partly drawn) [Compound 1-392, 2-(5-((3-chlorophenyl)(hydroxy)methyl)-2-((S)-3-(5-fluoropyridin-2-ylamino)pyrrolidin-1-yl)phenyl)ethanol] | > 1000 | > 3200 | 
9 | CC(C)c1ccccc1Oc1ccc(N2CC[C@H](Oc3ccc(C#N)cn3)C2)c(CCO)c1 [Compound 1-362] | 10 to 100 | 61.2 | 
10 | NCc1cc(-c2ccccc2)ccc1N1CC[C@H](Oc2ncccc2Cl)C1 [Compound 1-125, (S)-(4-(3-(3-chloropyridin-2-yloxy)pyrrolidin-1-yl)biphenyl-3-yl)methanamine hydrochloride] |  |  | IC50 [4]: > 1000 nM; IC50 [5]: > 3200 nM
11 | NC(=O)c1cc(-c2ncc[nH]2)ccc1N1CC[C@@H](Oc2ccc(C(F)(F)F)cn2)C1 [Compound 1-107, (R)-5-(1H-imidazol-2-yl)-2-(3-(5-(trifluoromethyl)pyridin-2-yloxy)pyrrolidin-1-yl)benzamide] | > 1000 | > 1000 | IC50 [4]: > 1000 nM; IC50 [5]: > 1000 nM
12 | CCc1ccccc1-c1ccc(N2CC[C@H](Oc3ccc(Cl)cn3)C2)c(CO)n1 [Compound 1-201, (S)-(3-(3-(5-chloropyridin-2-yloxy)pyrrolidin-1-yl)-6-(2-ethylphenyl)pyridin-2-yl)methanol] | > 1000 | > 3200 | 
13 | OCc1cc(Oc2ccc(Cl)cc2)ccc1N1CC[C@H](Oc2ccccn2)C1 [Compound 1-283] | 100 to 1000 | 283 | 
14 | O=C(O)c1cc(-c2ccccc2Cl)ccc1N1CC[C@H](Oc2ccc(C(F)(F)F)cn2)C1 [Compound 1-166, (S)-2′-chloro-4-(3-(5-(trifluoromethyl)pyridin-2-yloxy)pyrrolidin-1-yl)biphenyl-3-carboxylic acid] | > 1000 | ~2210 | IC50 [4]: > 1000 nM; IC50 [5]: ~2230 nM
15 | OCc1cc(C2CCOCC2)ccc1N1CC[C@H](Oc2ccc(C(F)(F)F)cn2)C1 [Compound 1-276, (S)-(5-(tetrahydro-2H-pyran-4-yl)-2-(3-(5-(trifluoromethyl)pyridin-2-yloxy)pyrrolidin-1-yl)phenyl)methanol] | > 1000 | > 3200 | 
16 | CCCc1ccccc1Oc1ccc(N2CC[C@H](Oc3ncccc3Cl)C2)c(CO)c1 [Compound 1-266, (S)-(2-(3-(3-chloropyridin-2-yloxy)pyrrolidin-1-yl)-5-(2-propylphenoxy)phenyl)methanol] | < 10 | 2.65 | 
17 | OCc1cc(-c2ccccc2)ccc1N1CC[C@H](Oc2ccc(C(F)(F)F)nn2)C1 [Compound 1-397, (S)-(4-(3-(6-(trifluoromethyl)pyridazin-3-yloxy)pyrrolidin-1-yl)biphenyl-3-yl)methanol] | > 1000 | 2740 | IC50 [4]: > 1000 nM; IC50 [5]: 1370 nM
18 | CC(O)c1cc(F)ccc1-c1ccc(C2CCN(C(=O)c3ccc(F)cn3)C2)c(CO)c1 (centres unmarked) [Compound 2-70, (3-(4′-fluoro-2′-(1-hydroxyethyl)-3-(hydroxymethyl)biphenyl-4-yl)pyrrolidin-1-yl)(5-fluoropyridin-2-yl)methanone] | > 1000 |  | IC50 [3]: 2330 nM
19 | O=C(c1cccc(Cl)c1)c1ccc(CCO)c(N2CC[C@H](Oc3ncccc3Cl)C2)c1 [Compound 1-314, (S)-(3-chlorophenyl)(3-(3-(3-chloropyridin-2-yloxy)pyrrolidin-1-yl)-4-(2-hydroxyethyl)phenyl)methanone] | 100 to 1000 | 229 | IC50 [4]: 100 to 1000 nM; IC50 [5]: 307 nM
20 | O=C(c1csc(Cl)n1)N1CCC(c2ccc(-c3ccccc3C3CC3)cc2CO)C1 (centres unmarked) [Compound 2-124] |  |  | IC50 [3]: 20.7 nM
21 | N#Cc1cc(Br)ccc1N1CC[C@H](Oc2ncccc2Cl)C1 [Compound 1-305] | > 1000 |  | 
22 | CN(C)Cc1ccccc1N1CC[C@H](Oc2ccc(C(F)(F)F)cn2)C1 [Compound 1-61, (S)—N,N-dimethyl-1-(2-(3-(5-(trifluoromethyl)pyridin-2-yloxy)pyrrolidin-1-yl)phenyl) methanamine hydrochloride] | > 1000 |  | 
23 | Cc1ccccc1-c1ccc(N2CC[C@H](Oc3ccc(C(F)(F)F)cn3)C2)c(CCCO)c1 [Compound 1-176, (S)-3-(2′-methyl-4-(3-(5-(trifluoromethyl)pyridin-2-yloxy)pyrrolidin-1-yl)biphenyl-3-yl)propan-1-ol] | > 1000 | > 3200 | IC50 [4]: > 1000 nM; IC50 [5]: 2550 nM
24 | N#Cc1cc(-c2ccccc2)ccc1N1CCC(Oc2ccc3ccccc3n2)C1=O (centres unmarked) [Compound 1-108, 4-(2-oxo-3-(quinolin-2-yloxy)pyrrolidin-1-yl)biphenyl-3-carbonitrile] |  |  | IC50 [4]: > 1000 nM; IC50 [5]: > 3200 nM
25 | O=C(O)c1ccccc1N1CC[C@H](Oc2ccc(C(F)(F)F)cn2)C1 [Compound 1-24, (S)-2-(3-(5-(trifluoromethyl)pyridin-2-yloxy)pyrrolidin-1-yl)benzoic acid] | > 1000 |  | 
26 | COc1ccccc1Oc1ccc(N2CC[C@H](Oc3ccc(C)cn3)C2)c(CO)c1 [Compound 1-345, (S)-(5-(2-methoxyphenoxy)-2-(3-(5-methylpyridin-2-yloxy)pyrrolidin-1-yl)phenyl)methanol] | > 1000 | ~2450 | 
27 | CCc1ccccc1-c1ccc(C2CCN(C(=O)c3ncccc3F)C2)c(CO)c1 (centres unmarked) [Compound 2-54, (3-(2′-ethyl-3-(hydroxymethyl)biphenyl-4-yl)pyrrolidin-1-yl)(3-fluoropyridin-2-yl) methanone] | 10 to 100 |  | IC50 [3]: 91.3 nM
28 | OCCc1cc(C(O)c2cccc(F)c2)ccc1N1CC[C@H](Oc2ncccc2Cl)C1 (stereo partly drawn) [Compound 1-312, 2-(2-((S)-3-(3-chloropyridin-2-yloxy)pyrrolidin-1-yl)-5-((3-fluorophenyl)(hydroxy)methyl)phenyl)ethanol] | > 1000 | ~1920 | 
29 | NC(=O)c1cc(Oc2ccccc2)ccc1N1CC[C@H](Oc2ccc(C(F)(F)F)cn2)C1 [Compound 1-124, (S)-5-phenoxy-2-(3-(5-(trifluoromethyl)pyridin-2-yloxy)pyrrolidin-1-yl)benzamide] |  |  | IC50 (hTRPV3 Patch P1 Inwd (nM)): 100 to 1000 nM; IC50 (read-out: hTRPV3 (nM) (Phase 1)): 729 nM
30 | COC(C)c1ccccc1Oc1ccc(N2CC[C@H](Oc3ccc(F)cn3)C2)c(CCO)c1 (stereo partly drawn) [Compound 1-347, 2-(2-((S)-3-(5-fluoropyridin-2-yloxy)pyrrolidin-1-yl)-5-(2-(1-methoxyethyl)phenoxy)phenyl)ethanol] | 100 to 1000 | 220 | IC50 [4]: 100 to 1000 nM; IC50 [5]: 198 nM
